The term IC50 denotes the concentration that gives 50% inhibition. A lower IC50 goes with higher potency.

Where a name gives a salt, the structure may show the parent alone.

The text below walks through data of patent US9145399B2, “Substituted bicyclic triazole derivatives as gamma secretase modulators” (Janssen Pharmaceuticals, Inc., priority 2010, dated 2015).

Experiment [1] deals with Aβ42. Nature of the experiment: Screening for γ-secretase-modulating activity in SKNBE2 cells carrying APP 695 wild type: Aβ42 in cell supernatant (Alphalisa). The format is cell-based. Conditions: Homo sapiens, SKNBE2, SKNBE2 cells carrying APP 695 wild type, overnight incubation. On the procedure:
(§1) Pharmacology A) Screening of the Compounds of the Invention for γ-Secretase-Modulating Activity
(§2) Screening was carried out using SKNBE2 cells carrying the APP 695—wild type, grown in Dulbecco's Modified Eagle's Medium/Nutrient mixture F-12 (DMEM/NUT-mix F-12) (HAM) provided by Invitrogen (cat no. 10371-029) containing 5% Serum/Fe supplemented with 1% non-essential amino acids, 1-glutamine 2 mM, Hepes 15 mM, penicillin 50 U/ml (units/ml) en streptomycin 50 μg/ml. Cells were grown to near confluency.
(§3) The screening was performed using a modification of the assay as described in Citron et al (1997) Nature Medicine 3: 67. Briefly, cells were plated in a 384-well plate at 10^4 cells/well in Ultraculture (Lonza, BE12-725F) supplemented with 1% glutamine (Invitrogen, 25030-024), 1% non-essential amino acid (NEAA), penicillin 50 U/ml en streptomycin 50 μg/ml in the presence of test compound at different test concentrations. The cell/compound mixture was incubated overnight at 37° C., 5% CO2. The next day the media were assayed by two sandwich immuno-assays, for Aβ42 and Aβtotal.
(§4) Aβtotal and Aβ42 concentrations were quantified in the cell supernatant using the Aphalisa technology (Perkin Elmer). Alphalisa is a sandwich assay using biotinylated antibody attached to streptavidin coated donorbeads and antibody conjugated to acceptor beads. In the presence of antigen, the beads come into close proximity. The excitation of the donor beads provokes the release of singlet oxygen molecules that trigger a cascade of energy transfer in the acceptor beads, resulting in light emission. To quantify the amount of Aβ42 in the cell supernatant, monoclonal antibody specific to the C-terminus of Aβ42 (JRF/cAβ42/26) was coupled to the receptor beads and biotinylated antibody specific to the N-terminus of Aβ (JRF/AβN/25) was used to react with the donor beads. T quantify the amount of Aβtotal in the cell supernatant, monoclonal antibody specific to the N-terminus of Aβ (JRF/AβN/25) was coupled to the receptor beads and biotinylated antibody specific to the mid region of Aβ (biotinylated 4G8) was used to react with the donor beads.
(§5) To obtain the values reported in Table 3, the data are calculated as percentage of the maximum amount of amyloid Beta 42 measured in the absence of the test compound. The sigmoidal dose response curves were analyzed using non-linear regression analysis with percentage of the control plotted against the log concentration of the compound. A 4-parameter equation was used to determine the IC50.
(Alpha assays give light when donor and acceptor beads are brought close together.)

The subject of experiment [2] is Aβtotal. The experiment is described as follows: Screening for γ-secretase-modulating activity in SKNBE2 cells carrying APP 695 wild type: Aβtotal in cell supernatant (Alphalisa). The settings on record: Homo sapiens, overnight incubation. In kind it is cell-based. On the procedure: as §1, §2, §3, §4, §5

As to `COc1cc(Nc2nc3c(-c4ccc(F)cc4C(F)(F)F)cccn3n2)ccc1-n1cnc(C)n1` [Compound 4, 8-[4-fluoro-2-(trifluoromethyl)phenyl]-N-[3-methoxy-4-(3-methyl-1H-1,2,4-triazol-1-yl)phenyl]-[1,2,4]triazolo[1,5-a]pyridin-2-amine], the values for the IC50 in experiment [1] and in experiment [2] were 22 nM and over 10000 nM, respectively.

Take `COc1cc(Nc2nc3n(n2)CCCC3c2ccc(F)cc2)ccc1-n1cnc(C)c1` (stereo not shown) [Compound 5, 8-(4-fluorophenyl)-5,6,7,8-tetrahydro-N-[3-methoxy-4-(4-methyl-1H-imidazol-1-yl)phenyl]-[1,2,4]triazolo[1,5-a]pyridin-2-amine]: the IC50 is 18 nM in experiment [1] and over 10000 nM in experiment [2].

Regarding `COc1cc(Nc2nc3c(-c4ccc(F)cc4C)nccn3n2)ccc1-n1cnc(C)c1` [Compound 10, 8-(4-fluoro-2-methylphenyl)-N-[3-methoxy-4-(4-methyl-1H-imidazol-1-yl)phenyl]-[1,2,4]triazolo[1,5-a]pyrazin-2-amine], the 50% inhibitory concentration (IC50) is 9 nM in experiment [1] and over 10000 nM in experiment [2].

In the case of `COc1nc(Nc2nc3n(n2)CCCC3c2ccc(F)cc2)ccc1-c1ccnc(C)c1` (stereo not shown) [Compound 16, 8-(4-fluorophenyl)-5,6,7,8-tetrahydro-N-(2-methoxy-2′-methyl[3,4′-bipyridin]-6-yl)-[1,2,4]triazolo[1,5-a]pyridin-2-amine], the IC50 in experiment [1] was 363 nM; in experiment [2] it was over 10000 nM.

Take `COc1nc(Nc2nc3n(n2)CCCC3c2ccccc2C(F)(F)F)ccc1-n1cnc(C)c1` (stereo not shown) [Compound 17, 5,6,7,8-tetrahydro-N-[6-methoxy-5-(4-methyl-1H-imidazol-1-yl)-2-pyridinyl]-8-[2-(trifluoromethyl)phenyl]-[1,2,4]triazolo[1,5-a]pyridin-2-amine]: the IC50 is 295 nM in experiment [1] and over 10000 nM in experiment [2].

Turning to `COc1nc(Nc2nc3n(n2)CCCC3c2ccccc2Cl)ccc1-n1cnc(C)c1` (stereo not shown) [Compound 18, 8-(2-chlorophenyl)-5,6,7,8-tetrahydro-N-[6-methoxy-5-(4-methyl-1H-imidazol-1-yl)-2-pyridinyl]-[1,2,4]triazolo[1,5-a]pyridin-2-amine], the 50% inhibitory concentration (IC50) was 112 nM in experiment [1] and over 10000 nM in experiment [2].

On to `COc1cc(Nc2nc3c(-c4ccc(F)cc4C)cccn3n2)ccc1-n1cnc(C)c1` [Compound 19, 8-(4-fluoro-2-methylphenyl)-N-[3-methoxy-4-(4-methyl-1H-imidazol-1-yl)phenyl]-[1,2,4]triazolo[1,5-a]pyridin-2-amine], for which the figures for the half-maximal inhibitory concentration (IC50) in experiment [1] and in experiment [2] were 4 nM and 3720 nM, respectively.

As for `COc1cc(Nc2nc3cc(-c4ccccc4C(F)(F)F)ccn3n2)ccc1-n1cnc(C)c1` [Compound 21, N-[3-methoxy-4-(4-methyl-1H-imidazol-1-yl)phenyl]-7-[2-(trifluoromethyl)phenyl]-[1,2,4]triazolo[1,5-a]pyridin-2-amine], the IC50 in experiment [1] was 115 nM; in experiment [2] it was over 10000 nM.

As to `Cc1ncoc1-c1ccc(Nc2nc3c(-c4ccccc4C(F)(F)F)cccn3n2)cc1` [Compound 24, N-[4-(4-methyl-5-oxazolyl)phenyl]-8-[2-(trifluoromethyl)phenyl]-[1,2,4]triazolo[1,5-a]pyridin-2-amine], the values for the half-maximal inhibitory concentration (IC50) in experiment [1] and in experiment [2] were 126 nM and over 10000 nM, respectively.

For the molecule `COc1cc(Nc2nc3n(n2)CCCC3c2ccccc2Cl)ccc1-n1cnc(C)c1` (stereo not shown) [Compound 27, 8-(2-chlorophenyl)-5,6,7,8-tetrahydro-N-[3-methoxy-4-(4-methyl-1H-imidazol-1-yl)phenyl]-[1,2,4]triazolo[1,5-a]pyridin-2-amine], the figures for the IC50 in experiment [1] and in experiment [2] were 14 nM and 8510 nM, respectively.

Take `COc1cc(N(C)c2nc3n(n2)CCCC3c2ccccc2C(F)(F)F)ccc1-n1cnc(C)c1` (stereo not shown) [Compound 33, 5,6,7,8-tetrahydro-N-[3-methoxy-4-(4-methyl-1H-imidazol-1-yl)phenyl]-N-methyl-8-[2-(trifluoromethyl)phenyl]-[1,2,4]triazolo[1,5-a]pyridin-2-amine HCl]: the figures for the IC50 in experiment [1] and in experiment [2] were 4470 nM and over 10000 nM, respectively.
